PMC6265301, “Engineering Saccharomyces cerevisiae for co-utilization of D-galacturonic acid and D-glucose from citrus peel waste” (Nature Communications, 2018)

Experiments:
[1] = target: T1, uronate dehydrogenase (UDH) (Pseudomonas syringae group genomosp. 3, UniProt Q888H1); assay: conversion to meso-galactaric acid by UDH-expressing yeast, HPLC; type: cell-based; details: orange peel hydrolysate, GatA co-expressed
T1 construct: genomically integrated, expressed in S. cerevisiae with GatA
T1 sequence (Q888H1 1-275): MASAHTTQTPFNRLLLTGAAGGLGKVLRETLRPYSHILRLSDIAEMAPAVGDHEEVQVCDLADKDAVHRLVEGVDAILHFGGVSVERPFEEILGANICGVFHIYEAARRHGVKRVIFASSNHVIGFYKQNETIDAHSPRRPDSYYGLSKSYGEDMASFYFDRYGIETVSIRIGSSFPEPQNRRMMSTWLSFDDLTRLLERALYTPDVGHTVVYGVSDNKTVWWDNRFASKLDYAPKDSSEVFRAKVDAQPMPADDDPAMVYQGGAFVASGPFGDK

GAAA = target: T2, GAAA (Aspergillus niger, UniProt A8DRH9); assay: reductase activity in yeast lysate; type: biochemical
T2 construct: codon-optimized, expressed in S. cerevisiae BY4741, lysate
T2 sequence (A8DRH9 1-412): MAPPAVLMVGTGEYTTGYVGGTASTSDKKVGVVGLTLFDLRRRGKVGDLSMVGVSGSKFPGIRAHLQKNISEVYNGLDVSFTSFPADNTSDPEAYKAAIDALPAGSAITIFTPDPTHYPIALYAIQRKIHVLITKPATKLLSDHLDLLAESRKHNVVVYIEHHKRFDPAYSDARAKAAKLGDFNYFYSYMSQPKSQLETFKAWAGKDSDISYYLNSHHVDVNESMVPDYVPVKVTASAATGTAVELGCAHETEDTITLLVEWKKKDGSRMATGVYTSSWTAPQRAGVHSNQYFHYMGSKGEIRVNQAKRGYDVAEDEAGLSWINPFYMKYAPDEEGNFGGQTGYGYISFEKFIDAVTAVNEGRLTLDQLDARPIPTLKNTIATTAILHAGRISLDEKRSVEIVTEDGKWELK

GAR1 = target: T3, GAR1 (Trichoderma reesei, UniProt Q3ZFI7); assay: reductase activity in yeast lysate; type: biochemical
T3 construct: codon-optimized, expressed in S. cerevisiae BY4741, lysate
T3 sequence (Q3ZFI7 1-309): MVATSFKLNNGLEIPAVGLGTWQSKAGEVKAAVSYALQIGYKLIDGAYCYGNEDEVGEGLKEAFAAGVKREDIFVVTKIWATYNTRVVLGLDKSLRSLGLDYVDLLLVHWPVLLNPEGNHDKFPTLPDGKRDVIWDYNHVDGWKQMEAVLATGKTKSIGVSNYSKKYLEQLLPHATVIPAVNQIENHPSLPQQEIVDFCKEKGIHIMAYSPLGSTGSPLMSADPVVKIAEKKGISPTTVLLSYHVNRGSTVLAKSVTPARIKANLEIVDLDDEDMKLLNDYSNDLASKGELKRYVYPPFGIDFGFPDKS

GAAC = target: T4, GAAC (Aspergillus niger, UniProt A8DRH7); assay: aldolase activity in yeast lysate; type: biochemical
T4 construct: codon-optimized, expressed in S. cerevisiae BY4741, lysate
T4 sequence (A8DRH7 1-335): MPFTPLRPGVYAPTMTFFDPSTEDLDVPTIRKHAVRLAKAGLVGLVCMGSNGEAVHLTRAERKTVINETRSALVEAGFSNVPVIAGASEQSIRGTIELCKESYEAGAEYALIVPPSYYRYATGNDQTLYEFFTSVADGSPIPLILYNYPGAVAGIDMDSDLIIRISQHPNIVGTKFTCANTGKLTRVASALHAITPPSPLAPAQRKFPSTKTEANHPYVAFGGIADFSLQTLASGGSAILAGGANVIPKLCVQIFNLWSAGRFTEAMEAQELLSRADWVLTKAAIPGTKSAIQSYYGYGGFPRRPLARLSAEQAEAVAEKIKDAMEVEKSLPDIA

SMILES	conversion to meso-galactaric acid by UDH-expressing yeast, HPLC [1]	reductase activity in yeast lysate (GAAA)	reductase activity in yeast lysate (GAR1)	aldolase activity in yeast lysate (GAAC)
O=C(O)[C@H]1OC(O)[C@H](O)[C@@H](O)[C@H]1O (stereo partly drawn) [D-galUA]	conversion of D-galUA to meso-galactaric acid was observed in the UDH and GatA co-expression strain	lower specific activities measured for GAAA compared to GAR1 in cell lysate	D-galacturonate reductase from Trichoderma reesei (GAR1)	
O=C(O)C(=O)C[C@H](O)[C@@H](O)CO [2-keto-3-deoxy-L-galactonate]				2-keto-3-deoxy-L-galactonate aldolase from Aspergillus niger (GAAC)
